Molecular target: T1, met (HGF receptor) in human gastric cancer cells MKN45 (Homo sapiens, UniProt P08581)
T1 construct: endogenous in cells; host or cells: MKN45 human gastric cancer cells
Test: Inhibitory activity against met-autophosphorylation using ELISA method (2), MKN45 cells, HGF-independent
Assay type: cell-based
Description: Cells were cultured with RPMI medium containing 0.1% fetal calf serum in 96-well flat-bottom plate in an amount of 3×10^4 per well, and were incubated at 37° C. overnight. The medium was then replaced by a fresh RPMI medium containing 0.1% fetal calf serum. A solution of the test compound in dimethyl sulfoxide was added to each well, and the incuvation was continued at 37° C. for additional one hr. The medium was removed, the cells were washed with phosphate buffered saline (pH 7.4), and 50 μl of a lysis buffer (20 mM HEPES (pH 7.4), 150 mM NaCl, 0.2% Triton X-100, 10% glycerol, 5 mM sodium orthovanadylate, 5 mM disodium ethylenediaminetetraacetate, and 2 mM Na4P2O7) was then added thereto. The mixture was shaken at 4° C. for 2 hr to prepare a cell extract.
Separately, phosphate buffered saline (50 μl, pH 7.4) containing 5 μg/ml of anti-phospho-tyrosine antibody (PY20; purchased from Transduction Laboratories) was added to a microplate for ELISA (Maxisorp; purchased from NUNC), followed by gentle agitation at 4° C. overnight to coat the surface of the wells with the antibody. After washing of the plate, 300 μl of a blocking solution was added, followed by gentle agitation at room temperature for 2 hr to perform blocking. After washing, the whole quantity of the cell extract was transferred to the wells, and the plate was then allowed to stand at 4° C. overnight. After washing, an anti-HGF receptor antibody (h-Met (C-12), purchased from Santa Cruz Biotechnology) was allowed to react at room temperature for one hr, and, after washing, a peroxidase-labeled anti-rabbit Ig antibody (purchased from Amersham) was allowed to react at room temperature for one hr. After washing, a chromophoric substrate for peroxidase (purchased from Sumitomo Bakelite Co., Ltd.) was added thereto to initiate a reaction. After a suitable level of color development, a reaction termination solution was added to stop the reaction, and the absorbance at 450 nm was measured with a microplate reader.

T1 sequence (P08581 25-1390): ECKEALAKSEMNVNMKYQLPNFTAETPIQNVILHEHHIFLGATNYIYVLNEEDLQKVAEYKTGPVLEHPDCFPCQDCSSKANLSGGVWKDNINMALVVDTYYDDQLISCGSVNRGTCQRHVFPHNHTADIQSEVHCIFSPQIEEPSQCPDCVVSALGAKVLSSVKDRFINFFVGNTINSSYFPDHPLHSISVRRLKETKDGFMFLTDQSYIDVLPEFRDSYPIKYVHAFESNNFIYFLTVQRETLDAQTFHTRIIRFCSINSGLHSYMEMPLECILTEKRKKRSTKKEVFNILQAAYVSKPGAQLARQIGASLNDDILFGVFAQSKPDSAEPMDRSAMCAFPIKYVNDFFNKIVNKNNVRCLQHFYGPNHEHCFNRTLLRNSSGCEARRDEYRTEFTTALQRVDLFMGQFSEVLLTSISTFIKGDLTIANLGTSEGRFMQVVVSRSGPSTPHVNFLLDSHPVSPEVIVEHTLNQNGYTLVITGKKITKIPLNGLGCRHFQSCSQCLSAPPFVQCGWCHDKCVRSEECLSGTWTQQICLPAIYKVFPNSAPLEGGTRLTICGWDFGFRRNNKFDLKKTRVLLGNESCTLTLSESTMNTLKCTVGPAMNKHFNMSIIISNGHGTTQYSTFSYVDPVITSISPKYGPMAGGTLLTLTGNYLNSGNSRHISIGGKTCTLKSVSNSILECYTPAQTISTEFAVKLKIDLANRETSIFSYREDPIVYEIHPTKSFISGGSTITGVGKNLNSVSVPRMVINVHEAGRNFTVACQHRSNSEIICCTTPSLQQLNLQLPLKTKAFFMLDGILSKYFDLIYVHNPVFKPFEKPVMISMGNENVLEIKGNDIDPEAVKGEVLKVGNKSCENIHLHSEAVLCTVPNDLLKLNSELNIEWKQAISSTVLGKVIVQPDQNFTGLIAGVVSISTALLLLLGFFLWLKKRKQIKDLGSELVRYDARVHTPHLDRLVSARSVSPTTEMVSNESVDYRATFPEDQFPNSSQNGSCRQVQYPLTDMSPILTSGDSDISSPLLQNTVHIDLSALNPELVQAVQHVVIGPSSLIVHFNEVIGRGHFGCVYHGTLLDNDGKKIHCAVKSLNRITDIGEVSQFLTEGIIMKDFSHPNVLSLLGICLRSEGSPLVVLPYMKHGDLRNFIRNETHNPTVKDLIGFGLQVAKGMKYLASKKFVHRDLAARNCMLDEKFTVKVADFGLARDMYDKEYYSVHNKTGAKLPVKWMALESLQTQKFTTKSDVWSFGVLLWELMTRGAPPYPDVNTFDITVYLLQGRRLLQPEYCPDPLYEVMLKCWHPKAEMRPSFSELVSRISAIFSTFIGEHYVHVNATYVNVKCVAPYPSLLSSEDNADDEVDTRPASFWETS

IC50 | SMILES
28.1 nM | COc1cc2nccc(Oc3ccc(NC(=S)NC(=O)Cc4ccc(F)cc4)cc3Cl)c2cc1OC [Example 73, 1-[3-chloro-4-(6,7-dimethoxyquinolin-4-yloxy)-phenyl]-3-[2-(4-fluorophenyl)acetyl]thiourea]
182 nM | COc1cc2nccc(Oc3ccc(NC(=S)NC(=O)Cc4cccc(F)c4)c(F)c3)c2cc1OC [Example 74, 1-[4-(6,7-dimethoxyquinolin-4-yloxy)-2-fluoro-phenyl]-3-[2-(3-fluorophenyl)acetyl]thiourea]
33.6 nM | COc1cc2nccc(Oc3ccc(NC(=S)NC(=O)Cc4cccc(F)c4)cc3F)c2cc1OC [Example 75, 1-[4-(6,7-dimethoxyquinolin-4-yloxy)-3-fluoro-phenyl]-3-[2-(3-fluorophenyl)acetyl]thiourea]
51.7 nM | COc1cc2nccc(Oc3ccc(NC(=S)NC(=O)Cc4cccc(F)c4)cc3Cl)c2cc1OC [Example 76, 1-[3-chloro-4-(6,7-dimethoxyquinolin-4-yloxy)-phenyl]-3-[2-(3-fluorophenyl)acetyl]thiourea]
178 nM | COc1cc2nccc(Oc3ccc(NC(=S)NC(=O)Cc4cccc(C)c4)cc3)c2cc1OC [Example 77, 1-[4-(6,7-dimethoxyquinolin-4-yloxy)phenyl]-3-(2-m-tolylacetyl)thiourea]
66.3 nM | COc1cc2nccc(Oc3ccc(NC(=S)NC(=O)Cc4cccc(C)c4)cc3Cl)c2cc1OC [Example 78, 1-[3-chloro-4-(6,7-dimethoxyquinolin-4-yloxy)-phenyl]-3-(2-m-tolylacetyl)thiourea]
145 nM | COc1cc2nccc(Oc3ccc(NC(=S)NC(=O)Cc4ccccc4C)cc3)c2cc1OC [Example 79, 1-[4-(6,7-dimethoxyquinolin-4-yloxy)phenyl]-3-(2-o-tolylacetyl)thiourea]
30.2 nM | COc1cc2nccc(Oc3ccc(NC(=S)NC(=O)Cc4ccccc4F)c(F)c3)c2cc1OC [Example 80, 1-[4-(6,7-dimethoxyquinolin-4-yloxy)-2-fluoro-phenyl]-3-[2-(2-fluorophenyl)acetyl]thiourea]
27.7 nM | COc1cc2nccc(Oc3ccc(NC(=S)NC(=O)Cc4ccccc4F)cc3F)c2cc1OC [Example 81, 1-[4-(6,7-dimethoxyquinolin-4-yloxy)-3-fluoro-phenyl]-3-[2-(2-fluorophenyl)acetyl]thiourea]
74.3 nM | COc1cc2nccc(Oc3ccc(NC(=S)NC(=O)Cc4ccc(C)cc4)cc3Cl)c2cc1OC [Example 82, 1-[3-chloro-4-(6,7-dimethoxyquinolin-4-yloxy)-phenyl]-3-(2-p-tolylacetyl)thiourea]
39.1 nM | COc1ccccc1CC(=O)NC(=S)Nc1ccc(Oc2ccnc3cc(OC)c(OC)cc23)c(F)c1 [Example 83, 1-[4-(6,7-dimethoxyquinolin-4-yloxy)-3-fluoro-phenyl]-3-[2-(2-methoxyphenyl)acetyl]thiourea]
40 nM | COc1cc2nccc(Oc3ccc(NC(=S)NC(=O)Cc4ccccc4C)cc3F)c2cc1OC [Example 84, 1-[4-(6,7-dimethoxyquinolin-4-yloxy)-3-fluorophenyl]-3-(2-o-tolylacetyl)thiourea]
48.8 nM | COc1cc2nccc(Oc3ccc(NC(=S)NC(=O)Cc4ccsc4)cc3F)c2cc1OC [Example 85, 1-[4-(6,7-dimethoxyquinolin-4-yloxy)-3-fluoro-phenyl]-3-(2-thiophen-3-ylacetyl)thiourea]
23.5 nM | COc1cc(Oc2ccnc3cc(OC)c(OC)cc23)ccc1NC(=S)NC(=O)Cc1ccsc1 [Example 86, 1-[4-(6,7-dimethoxyquinolin-4-yloxy)-2-methoxyphenyl]-3-(2-thiophen-3-ylacetyl)thiourea]
198 nM | COc1cc2nccc(Oc3ccc(NC(=S)NC(=O)Cc4ccccc4Cl)cc3F)c2cc1OC [Example 87, 1-[2-(2-chlorophenyl)acetyl]-3-[4-(6,7-dimethoxyquinolin-4-yloxy)-3-fluorophenyl]thiourea]
49.2 nM | COc1cc2nccc(Oc3ccc(NC(=S)NC(=O)CC4C5CCC4CC5)cc3)c2cc1OC (stereo not shown) [Example 88, 1-(2-bicyclo[2.2.1]hepto-7-ylacetyl)-3-[4-(6,7-dimethoxyquinolin-4-yloxy)phenyl]thiourea]
52.6 nM | COc1cc2nccc(Oc3ccc(NC(=S)NC(=O)CC4C5CCC4CC5)c(F)c3)c2cc1OC (stereo not shown) [Example 89]

IC50 | SMILES
28.1 nM | COc1cc2nccc(Oc3ccc(NC(=S)NC(=O)CC4C5CCC4CC5)cc3F)c2cc1OC (stereo not shown) [Example 90, 1-(2-bicyclo[2.2.1]hepto-7-ylacetyl)-3-[4-(6,7-dimethoxyquinolin-4-yloxy)-3-fluorophenyl]thiourea]
40.1 nM | COc1cc2nccc(Oc3ccc(NC(=S)NC(=O)CC4C5CCC4CC5)cc3Cl)c2cc1OC (stereo not shown) [Example 91, 1-(2-bicyclo[2.2.1]hepto-7-ylacetyl)-3-[3-chloro-4-(6,7-dimethoxyquinolin-4-yloxy)phenyl]thiourea]
148 nM | COc1cc2nccc(Oc3ccc(NC(=S)NC(=O)Cc4ccc(C)cc4)c(F)c3)c2cc1OC [Example 92, 1-[4-(6,7-dimethoxyquinolin-4-yloxy)-2-fluoro-phenyl]-3-(2-p-tolylacetyl)thiourea]
121 nM | COc1cc2nccc(Oc3ccc(NC(=S)NC(=O)Cc4ccc(F)cc4F)c(F)c3)c2cc1OC [Example 93, 1-[2-(2,4-difluorophenyl)acetyl]-3-[4-(6,7-dimethoxyquinolin-4-yloxy)-2-fluorophenyl]thiourea]
30.7 nM | COc1cc2nccc(Oc3ccc(NC(=S)NC(=O)Cc4ccc(F)cc4F)cc3F)c2cc1OC [Example 94, 1-[2-(2,4-difluorophenyl)acetyl]-3-[4-(6,7-dimethoxyquinolin-4-yloxy)-3-fluorophenyl]thiourea]
41.3 nM | COc1cc2nccc(Oc3ccc(NC(=S)NC(=O)Cc4c(F)cccc4F)cc3F)c2cc1OC [Example 95, 1-[2-(2,6-difluorophenyl)acetyl]-3-[4-(6,7-dimethoxyquinolin-4-yloxy)-3-fluorophenyl]thiourea]
171 nM | COc1cc2nccc(Oc3ccc(NC(=S)NC(=O)Cc4cc(F)ccc4F)c(F)c3)c2cc1OC [Example 96, 1-[2-(2,5-difluorophenyl)acetyl]-3-[4-(6,7-dimethoxyquinolin-4-yloxy)-2-fluorophenyl]thiourea]
37.6 nM | COc1cc2nccc(Oc3ccc(NC(=S)NC(=O)Cc4c(Cl)cccc4Cl)cc3F)c2cc1OC [Example 97, 1-[2-(2,6-dichlorophenyl)acetyl]-3-[4-(6,7-dimethoxyquinolin-4-yloxy)-3-fluorophenyl]thiourea]
27.8 nM | COc1cc2nccc(Oc3ccc(NC(=O)CC(=O)Nc4ccc(F)cc4F)c(F)c3)c2cc1OC [Example 98, N-(2,4-difluorophenyl)-N′-[4-(6,7-dimethoxy-quinolin-4-yloxy)-2-fluorophenyl]malonamide]
25.6 nM | COc1cc2nccc(Oc3ccc(NC(=O)CC(=O)Nc4ccc(F)cc4F)cc3F)c2cc1OC [Example 99, N-(2,4-difluorophenyl)-N′-[4-(6,7-dimethoxy-quinolin-4-yloxy)-3-fluorophenyl]malonamide]
30.8 nM | COc1cc2nccc(Oc3ccc(NC(=O)CC(=O)Nc4ccccc4)cc3)c2cc1OC [Example 100, N-[4-(6,7-dimethoxyquinolin-4-yloxy)phenyl]-N′-phenylmalonamide]
44.4 nM | COc1cc2nccc(Oc3ccc(NC(=O)CC(=O)NC4CCCCCC4)cc3)c2cc1OC [Example 101, N-cycloheptyl-N′-[4-(6,7-dimethoxyquinolin-4-yloxy)phenyl]malonamide]
91.8 nM | COc1cc2nccc(Oc3ccc(NC(=O)CC(=O)Nc4ccc(F)cc4F)cc3)c2cc1OC [Example 102, N-(2,4-difluorophenyl)-N′-[4-(6,7-dimethoxy-quinolin-4-yloxy)phenyl]malonamide]
2770 nM | COc1cc2nccc(Oc3ccc(NC(=O)C(OC)C(=O)Nc4ccc(F)cc4F)cc3)c2cc1OC (stereo not shown) [Example 103, N-(2,4-difluorophenyl)-N′-[4-(6,7-dimethoxy-quinolin-4-yloxy)phenyl]-2-methoxymalonamide]
344 nM | COc1cc2nccc(Oc3ccc(NC(=O)C(C)(C)C(=O)Nc4ccc(F)cc4F)cc3)c2cc1OC [Example 104, N-(2,4-difluorophenyl)-N′-[4-(6,7-dimethoxy-quinolin-4-yloxy)phenyl]-2,2-dimethylmalonamide]
104 nM | COc1cc2nccc(Oc3ccc(NC(=O)NC(=O)Nc4cc(C)ccn4)cc3)c2cc1OC [Example 105, N-(4-methyl-2-pyridyl)-({[4-(6,7-dimethoxy-quinolin-4-yloxy)anilino]carbonyl}amino)methanamide]
42.7 nM | COc1cc2c(Oc3ccc(NC(=O)NC(=O)Cc4ccccc4)cc3F)ccnc2cc1O [Example 106, N-{3-Fluoro-4-[(7-hydroxy-6-methoxy-4-quinolyl)-oxy]phenyl}-N′-(2-phenylacetyl)urea]

Source: US8324245B2, “Quinoline derivative and quinazoline derivative inhibiting self-phosphorylation of hepatocytus proliferator receptor, and medicinal composition containing the same” (Kyowa Hakko Kirin Co., Ltd., priority 2001, dated 2012)
